pIC50: −log10 of the molar value. Where two headings read alike, the source gives them in different places.
Columns and labels:
[1] = Pharmacokinetic studies / bioavailability in rats; format: in vivo, rat; details: for Cmax / Tmax / half-life: rat, plasma; for Cmax / Tmax: po, p.o. 10 mg/kg; for Cmax / Tmax / Fp.o.: 5 mg/ml solution in 10% DMSO 10% cremophor 80% saline
rat GnRH receptor = molecular target: T1, rat GnRH receptor (Rattus norvegicus, UniProt P30969); experiment: Radioligand binding, 125I-GnRH-A, rat pituitary membranes; set-up: membranes were prepared from rat pituitary; from tissue; host or cells: rat pituitary; details: read-out: rGnRH IC50
T1 sequence (P30969 1-327): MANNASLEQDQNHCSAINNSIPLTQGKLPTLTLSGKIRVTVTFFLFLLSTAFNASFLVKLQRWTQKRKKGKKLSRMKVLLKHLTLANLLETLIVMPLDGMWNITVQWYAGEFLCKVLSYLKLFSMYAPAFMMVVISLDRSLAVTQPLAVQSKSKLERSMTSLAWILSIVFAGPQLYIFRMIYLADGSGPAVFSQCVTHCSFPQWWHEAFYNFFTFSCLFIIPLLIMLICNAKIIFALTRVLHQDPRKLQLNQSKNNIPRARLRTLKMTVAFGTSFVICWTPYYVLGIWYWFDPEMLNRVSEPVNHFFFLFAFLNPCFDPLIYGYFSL
How it was run: (§1)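 Bound label captured on 0.1% polyethyleneimine-treated GF/C filters, washed three times with PBS, counted. IC50 derived; identical set-up for every species.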

[2] = Metabolism rate, pmol/min/mg at 1 μM, rat male; format: in vitro ADME; details: 1 μM compound
[3] = Metabolism rate, pmol/min/mg at 1 μM, rat female; format: in vitro ADME; details: 1 μM compound
mouse GnRH receptor = molecular target: T2, mouse GnRH receptor (Mus musculus, UniProt Q01776); experiment: Radioligand binding, 125I-GnRH-A, 293 cells expressing mouse GnRH receptors; details: read-out: mGnRH IC50
T2 construct: expressed in transfected cells; host or cells: 293 cells
T2 sequence (Q01776 1-327): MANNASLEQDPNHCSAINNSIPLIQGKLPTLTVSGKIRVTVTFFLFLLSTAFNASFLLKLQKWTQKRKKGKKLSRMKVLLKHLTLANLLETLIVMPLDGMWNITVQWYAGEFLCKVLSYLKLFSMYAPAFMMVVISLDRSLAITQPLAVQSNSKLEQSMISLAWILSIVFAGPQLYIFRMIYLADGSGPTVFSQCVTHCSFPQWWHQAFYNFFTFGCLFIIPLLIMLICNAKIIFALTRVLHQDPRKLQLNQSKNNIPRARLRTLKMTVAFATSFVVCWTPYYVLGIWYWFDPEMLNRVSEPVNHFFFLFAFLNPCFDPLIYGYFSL
How it was run: as §1

[4] = Metabolism rate, pmol/min/mg at 1 μM, human; format: in vitro ADME; details: 1 μM compound
human GnRH receptor = molecular target: T3, human GnRH receptor (Homo sapiens, UniProt P30968); experiment: Radioligand binding, 125I-GnRH-A displacement, membranes of HEK 293 cells with human GnRH receptor
T3 construct: expressed in transfected cells; host or cells: HEK 293 (hGnRH-R/293, from Dr. Stuart Sealfon)
T3 sequence (P30968 1-328): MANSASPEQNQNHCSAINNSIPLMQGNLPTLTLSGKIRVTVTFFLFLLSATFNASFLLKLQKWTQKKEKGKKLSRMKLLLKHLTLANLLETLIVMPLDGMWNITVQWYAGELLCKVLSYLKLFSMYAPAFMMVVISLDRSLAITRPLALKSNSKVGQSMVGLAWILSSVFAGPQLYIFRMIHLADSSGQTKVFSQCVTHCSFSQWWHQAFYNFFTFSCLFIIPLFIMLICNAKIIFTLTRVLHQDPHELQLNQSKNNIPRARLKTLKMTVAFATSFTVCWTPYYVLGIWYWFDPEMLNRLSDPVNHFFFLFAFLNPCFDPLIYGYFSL
How it was run: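 Bound tracer was separated by filtration through polyethyleneimine-soaked GF/C filters and counted by liquid scintillation. IC50 from curve fitting; other species were tested under the same conditions.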

bovine GnRH receptor = molecular target: T4, bovine GnRH receptor (Bos taurus, UniProt P32236); experiment: Radioligand binding, 125I-GnRH-A, bovine pituitary membranes; details: read-out: bGnRH IC50
T4 construct: membranes were prepared from bovine pituitary; from tissue; host or cells: bovine pituitary
T4 sequence (P32236 1-328): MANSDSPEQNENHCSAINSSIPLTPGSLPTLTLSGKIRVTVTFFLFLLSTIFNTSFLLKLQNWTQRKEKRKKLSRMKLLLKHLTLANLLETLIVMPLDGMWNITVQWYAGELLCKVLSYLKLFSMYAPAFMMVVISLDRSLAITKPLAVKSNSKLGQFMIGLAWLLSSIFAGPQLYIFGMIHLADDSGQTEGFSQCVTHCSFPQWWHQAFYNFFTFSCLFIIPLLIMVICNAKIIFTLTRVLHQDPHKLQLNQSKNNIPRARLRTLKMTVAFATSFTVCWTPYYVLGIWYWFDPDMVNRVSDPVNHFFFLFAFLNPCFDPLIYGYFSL
Procedure: All compounds were diluted in 1% DMSO (final assay concentration) in binding assay buffer. […] Reactions were terminated by rapid filtration onto 96-well Packard GF/C filters soaked in 0.1% polyethyleneimine. Filters were washed three times with PBS buffer, dried and counted on a Packard Topcount by liquid scintillation counting.
Assay conditions were identical for assessing compound activities at other species. […] IC50 values for control peptides and test compounds were calculated utilizing GraphPad Prism™ software.
The reaction mixture was vortexed and incubated for 1 min at room temperature. After one min, the mixture was vortexed and allowed to incubate for an additional minute. 2 ml of 0.5 M acetic acid/1% BSA was added to the reaction tube and the mixture was added to a C18 Sep-Pak cartridge. The cartridge was washed with subsequent washes of 5 ml H2O and 5 ml 0.5M acetic acid and then eluted with 5×1 ml of 60% CH3CN/40% 0.5M acetic acid. The eluate was diluted with 3× volume of HPLC buffer A (0.1% TFA in H2O) and loaded onto a C18 column. […] The radioactive fractions (750 ed/fraction) are collected into clean polypropylene tubes containing 100 μl of 10% BSA. Fractions were assessed for biological activity by radioligand binding.

[5] = second value marked * (mostly in parentheses), asterisk not explained, read-out: hGnRH IC50, value marked *

SMILES | Cmax ([1]; female, 10 mg/kg, rat female) [nM] | Tmax ([1]; female, 10 mg/kg, rat female) [h] | half-life ([1]; female, rat female) [h] | Fp.o. ([1]; rat female) | pIC50 (rat GnRH receptor) | Rat male pmol/min/mg 1 μM [2] [pmol/min/mg] | Rat female pmol/min/mg 1 μM [3] [pmol/min/mg] | pIC50 (mouse GnRH receptor) | Human pmol/min/mg 1 μM [4] [pmol/min/mg] | pIC50 (human GnRH receptor; read-out: hGnRH IC50) | pIC50 (bovine GnRH receptor) | half-life ([1]; male, iv, 10 mg/kg, rat male) [h] | pIC50 (human GnRH receptor; [5])
COc1cc2c(cc1Cc1ccc(C(=O)NCc3cccc(CNc4ccnc(NC[C@H]5CCCO5)n4)c3)o1)C(C)(C)CCC2(C)C (stereo in doubt) [Compound 199] | 80 | 4 | 1.5 | 10% (10 mg/kg)^10 | 8.02 | 3387 | 181 | 7.82 | 181 | 7.04 | – | – | –
COc1ccc(CNC(=O)c2ccc(Cc3cc4c(cc3C)C(C)(C)CCC4(C)C)o2)cc1 [Compound 42] | – | – | – | – | 7.00 | 1387 | – | 6.55 | 361 | 7.12 | 5.75 | 0.967 | 7.19
Cc1cc2c(cc1Cc1ccc(C(=O)NCc3cccs3)o1)C(C)(C)CCC2(C)C [Compound 44] | – | – | – | – | 6.29 | 1759 | – | 6.21 | 459 | 6.41 | 5.35 | 0.917 | 6.92
Cc1cc2c(cc1Cc1ccc(C(=O)NCc3ccccc3F)o1)C(C)(C)CCC2(C)C [Compound 46] | – | – | – | – | 6.05 | 1781 | – | 5.73 | 485 | – | 5.06 | 0.917 | 6.48
Cc1cc2c(cc1Cc1ccc(C(=O)NCCOc3ccccc3)o1)C(C)(C)CCC2(C)C [Compound 47] | – | – | – | – | 6.89 | 2198 | – | 6.62 | 392 | 6.64 | 5.72 | 1.5 | 7.10
COc1ccc(CNC(=O)c2ccc(Cc3cc4c(cc3C)C(C)(C)CCC4(C)C)o2)c(OC)c1 [Compound 56] | – | – | – | – | 7.15 | 3412 | – | 6.66 | 392 | 7.00 | 6.00 | 2.6 | –
Cc1cc2c(cc1Cc1ccc(C(=O)NCc3ccc(CNc4ncccn4)cc3)o1)C(C)(C)CCC2(C)C [Compound 137] | 230 | 1 | 7.9 | 1% (10 mg/kg)^10 | 6.40 | – | 182 | 6.44 | 594 | 6.70 | – | – | –
CCOc1cccc(OCC)c1NC(=O)c1ccc(Cc2cc3c(cc2C)C(C)(C)CCC3(C)C)o1 [Compound 194] | – | – | – | – | 7.46 | 5978 | 205 | 7.85 | 750 | 7.74 | – | – | –
Cc1ccc(C(C)(C)C)cc1Cc1ccc(C(=O)Nc2ccc3[nH]ccc3c2)o1 [Compound 207] | 2810 | 1 | 1.6 | 41% (10 mg/kg)^10 | – | 1236 | 159 | – | 157 | 6.70 | – | – | –
Cc1ccc(C(C)(C)C)cc1Cc1ccc(C(=O)NCc2cccc(CNc3ccnc(NC[C@H]4CCCO4)n3)c2)o1 [Compound 212] | 50 | 1 | 1.6 | 1% (10 mg/kg)^10 | 7.92 | 3282 | 430 | 7.21 | 322 | 7.10 | – | – | –
COc1cc2c(cc1Cc1ccc(C(=O)Nc3c(OC)cc(OC)c(C#N)c3OC)o1)C(C)(C)CCC2(C)C [Compound 217] | 100 | 1 | 3.8 | 16% (10 mg/kg)^10 | 7.68 | 953 | 203 | 7.96 | 483 | 7.54 | – | – | –
COc1cc(OC)c(NC(=O)c2ccc(Cc3cc4c(cc3C)OCCC4(C)C)o2)c(OC)c1 [Compound 221] | 340 | 1 | 3 | 41% (10 mg/kg)^10 | 7.96 | 528 | 223 | 8.04 | 116 | 7.82 | – | – | –
